The values below come from ChEMBL document CHEMBL3414527, “Engineering potent and selective analogues of GpTx-1, a tarantula venom peptide antagonist of the Na(V)1.7 sodium channel” (J Med Chem, 2015).

For test [1], the target named is Sodium channel protein type 9 subunit alpha (Homo sapiens, UniProt Q15858). Kind of test: Inhibition of human NaV1.7 at -140 mV holding potential by whole-cell patch clamp assay. In general terms: The patch-clamp technique gives a direct electrical read-out from membranes.
Test [2] deals with Sodium channel protein type 5 subunit alpha (Homo sapiens, UniProt Q14524). Nature of the test: Inhibition of human NaV1.5 at -140 mV holding potential by whole-cell patch clamp assay.

Bridge positions count the residues as written; N and C are the ends. Peptide text beside a SMILES is read from it.

Sequence of Sodium channel protein type 9 subunit alpha (Q15858 whole entry): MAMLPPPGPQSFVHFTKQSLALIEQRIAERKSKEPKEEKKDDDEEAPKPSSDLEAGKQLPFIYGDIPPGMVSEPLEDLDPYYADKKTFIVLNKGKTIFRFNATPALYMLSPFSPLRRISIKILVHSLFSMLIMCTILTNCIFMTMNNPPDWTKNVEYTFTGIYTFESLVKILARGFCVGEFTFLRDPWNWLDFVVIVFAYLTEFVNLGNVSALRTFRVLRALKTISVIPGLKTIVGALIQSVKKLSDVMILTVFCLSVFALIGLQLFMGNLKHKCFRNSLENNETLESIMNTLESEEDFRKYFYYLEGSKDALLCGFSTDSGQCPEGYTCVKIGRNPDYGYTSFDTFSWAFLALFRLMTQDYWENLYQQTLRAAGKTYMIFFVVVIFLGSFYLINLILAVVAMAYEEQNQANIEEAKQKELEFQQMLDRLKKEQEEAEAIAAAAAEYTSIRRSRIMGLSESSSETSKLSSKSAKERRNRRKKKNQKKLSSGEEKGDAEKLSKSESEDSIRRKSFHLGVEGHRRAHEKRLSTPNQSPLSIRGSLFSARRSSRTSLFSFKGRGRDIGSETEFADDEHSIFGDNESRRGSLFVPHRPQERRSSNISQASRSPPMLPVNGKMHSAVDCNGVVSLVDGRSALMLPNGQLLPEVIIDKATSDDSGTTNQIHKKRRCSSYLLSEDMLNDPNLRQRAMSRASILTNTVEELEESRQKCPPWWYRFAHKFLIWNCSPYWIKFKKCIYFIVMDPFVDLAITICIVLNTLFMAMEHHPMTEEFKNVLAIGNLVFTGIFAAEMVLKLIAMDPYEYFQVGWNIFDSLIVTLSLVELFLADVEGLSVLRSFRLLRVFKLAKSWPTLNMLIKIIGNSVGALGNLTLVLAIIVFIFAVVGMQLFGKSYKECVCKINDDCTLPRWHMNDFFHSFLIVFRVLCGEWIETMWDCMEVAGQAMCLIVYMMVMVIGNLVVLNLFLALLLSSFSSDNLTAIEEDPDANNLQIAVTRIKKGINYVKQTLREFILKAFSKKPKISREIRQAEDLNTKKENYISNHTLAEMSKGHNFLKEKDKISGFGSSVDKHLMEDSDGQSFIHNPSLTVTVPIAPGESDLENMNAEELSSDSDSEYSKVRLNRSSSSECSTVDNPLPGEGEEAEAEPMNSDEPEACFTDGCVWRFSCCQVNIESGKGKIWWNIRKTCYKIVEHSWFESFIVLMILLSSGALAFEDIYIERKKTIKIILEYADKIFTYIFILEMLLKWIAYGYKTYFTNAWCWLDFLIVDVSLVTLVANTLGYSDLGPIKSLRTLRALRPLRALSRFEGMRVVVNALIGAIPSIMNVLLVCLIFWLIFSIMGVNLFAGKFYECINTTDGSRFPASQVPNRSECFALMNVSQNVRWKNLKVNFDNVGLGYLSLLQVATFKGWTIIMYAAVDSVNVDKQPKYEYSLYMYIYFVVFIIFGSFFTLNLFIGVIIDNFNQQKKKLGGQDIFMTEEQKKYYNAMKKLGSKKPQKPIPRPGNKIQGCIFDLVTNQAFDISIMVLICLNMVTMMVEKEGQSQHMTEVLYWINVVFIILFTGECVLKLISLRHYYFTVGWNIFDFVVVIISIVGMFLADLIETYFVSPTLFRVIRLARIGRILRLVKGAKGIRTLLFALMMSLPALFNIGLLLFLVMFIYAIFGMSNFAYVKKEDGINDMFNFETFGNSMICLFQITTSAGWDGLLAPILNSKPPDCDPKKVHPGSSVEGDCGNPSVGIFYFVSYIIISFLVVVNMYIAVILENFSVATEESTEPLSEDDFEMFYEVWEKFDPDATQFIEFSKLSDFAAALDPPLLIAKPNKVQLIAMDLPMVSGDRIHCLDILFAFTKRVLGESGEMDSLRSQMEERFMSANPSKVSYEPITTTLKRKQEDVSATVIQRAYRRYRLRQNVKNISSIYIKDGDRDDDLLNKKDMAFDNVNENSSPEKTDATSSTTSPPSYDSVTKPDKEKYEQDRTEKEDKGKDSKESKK
Sequence of Sodium channel protein type 5 subunit alpha (Q14524 whole entry): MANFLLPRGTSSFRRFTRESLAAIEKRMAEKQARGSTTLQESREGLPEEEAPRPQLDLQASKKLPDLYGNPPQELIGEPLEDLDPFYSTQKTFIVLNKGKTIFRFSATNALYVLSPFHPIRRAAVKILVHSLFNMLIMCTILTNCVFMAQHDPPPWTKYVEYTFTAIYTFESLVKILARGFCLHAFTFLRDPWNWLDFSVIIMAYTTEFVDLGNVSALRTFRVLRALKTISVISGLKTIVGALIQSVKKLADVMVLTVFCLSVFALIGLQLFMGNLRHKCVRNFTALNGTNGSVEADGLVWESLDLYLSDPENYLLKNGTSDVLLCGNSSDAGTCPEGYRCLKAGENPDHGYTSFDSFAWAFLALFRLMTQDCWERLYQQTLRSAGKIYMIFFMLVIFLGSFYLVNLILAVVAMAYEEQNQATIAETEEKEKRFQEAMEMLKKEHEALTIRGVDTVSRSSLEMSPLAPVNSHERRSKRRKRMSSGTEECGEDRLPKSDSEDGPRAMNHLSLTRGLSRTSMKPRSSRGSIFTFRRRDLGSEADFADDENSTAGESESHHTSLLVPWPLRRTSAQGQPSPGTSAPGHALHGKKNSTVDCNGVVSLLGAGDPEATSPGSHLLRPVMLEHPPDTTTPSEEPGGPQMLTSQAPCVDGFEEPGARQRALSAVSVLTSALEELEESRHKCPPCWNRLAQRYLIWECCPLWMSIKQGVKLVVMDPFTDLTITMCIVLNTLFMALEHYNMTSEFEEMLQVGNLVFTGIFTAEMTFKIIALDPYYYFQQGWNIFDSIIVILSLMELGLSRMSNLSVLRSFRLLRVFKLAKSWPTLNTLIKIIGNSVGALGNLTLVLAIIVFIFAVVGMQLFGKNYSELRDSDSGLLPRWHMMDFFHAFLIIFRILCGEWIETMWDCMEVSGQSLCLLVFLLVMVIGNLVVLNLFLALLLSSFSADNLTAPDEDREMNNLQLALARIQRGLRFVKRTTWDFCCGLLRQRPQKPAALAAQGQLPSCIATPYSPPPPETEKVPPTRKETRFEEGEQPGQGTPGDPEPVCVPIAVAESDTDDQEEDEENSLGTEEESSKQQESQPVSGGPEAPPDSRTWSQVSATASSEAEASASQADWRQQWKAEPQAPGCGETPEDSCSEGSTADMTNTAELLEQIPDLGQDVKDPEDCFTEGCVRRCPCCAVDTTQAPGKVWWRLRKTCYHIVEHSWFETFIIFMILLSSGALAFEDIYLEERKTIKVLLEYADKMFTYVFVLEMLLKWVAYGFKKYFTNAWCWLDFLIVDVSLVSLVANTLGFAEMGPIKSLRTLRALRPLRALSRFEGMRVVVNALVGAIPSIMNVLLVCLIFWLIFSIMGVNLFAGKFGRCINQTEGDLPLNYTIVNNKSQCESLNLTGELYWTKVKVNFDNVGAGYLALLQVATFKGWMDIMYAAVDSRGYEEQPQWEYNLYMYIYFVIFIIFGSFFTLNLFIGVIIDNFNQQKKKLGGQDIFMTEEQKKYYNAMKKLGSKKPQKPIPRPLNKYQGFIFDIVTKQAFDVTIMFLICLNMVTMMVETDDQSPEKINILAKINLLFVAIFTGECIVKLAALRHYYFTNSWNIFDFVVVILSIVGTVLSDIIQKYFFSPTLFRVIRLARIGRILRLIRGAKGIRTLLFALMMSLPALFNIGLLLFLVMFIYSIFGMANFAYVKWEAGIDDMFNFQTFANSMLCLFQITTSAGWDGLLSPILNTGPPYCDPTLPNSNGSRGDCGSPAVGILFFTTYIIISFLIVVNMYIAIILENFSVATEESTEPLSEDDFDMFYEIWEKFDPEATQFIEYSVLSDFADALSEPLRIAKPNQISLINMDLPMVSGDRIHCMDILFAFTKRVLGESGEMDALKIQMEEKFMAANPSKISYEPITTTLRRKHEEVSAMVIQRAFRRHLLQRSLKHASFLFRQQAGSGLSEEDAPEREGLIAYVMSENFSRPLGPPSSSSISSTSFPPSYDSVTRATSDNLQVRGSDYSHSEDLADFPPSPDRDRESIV

For orientation: IC50 means the midpoint of a concentration-inhibition curve. Low values mean inhibition by little substance, high ones a need for much substance. In the case of `CC[C@H](C)[C@@H]1NC(=O)[C@@H]2CSSC[C@@H]3NC(=O)[C@H](C(C)C)NC(=O)[C@H](CC(C)C)NC(=O)[C@H](CC(N)=O)NC(=O)[C@@H]4CCCN4C(=O)[C@H](CCCNC(=N)N)NC(=O)[C@H](CSSC[C@H](NC(=O)[C@@H](N)CC(=O)O)C(=O)N[C@@H](CC(C)C)C(=O)NCC(=O)N(C)[C@@H](CC(C)C)C(=O)N[C@@H](CCSC)C(=O)N[C@@H](CCCNC(=N)N)C(=O)N[C@@H](CCCCN)C(=O)N2)NC(=O)[C@H](CSSC[C@@H](C(=O)N[C@@H](CCCCN)C(=O)N[C@@H](Cc2ccc(O)cc2)C(=O)N[C@H](C(=O)N[C@@H](Cc2ccccc2)C(N)=O)C(C)C)NC(=O)[C@H](Cc2c[nH]c4ccccc24)NC(=O)[C@H](CCCCN)NC(=O)[C@H](Cc2cnc[nH]2)NC(=O)[C@H]([C@@H](C)O)NC(=O)[C@H](CCCNC(=N)N)NC(=O)[C@H](CO)NC3=O)NC(=O)[C@H](CCCCN)NC(=O)[C@H](CC(=O)O)NC(=O)[C@H](CC(N)=O)NC(=O)[C@H](CC(=O)O)NC(=O)[C@@H]2CCCN2C1=O`, the IC50 in test [1] was 0.025 µM; in test [2], above 10 µM.

`CC[C@H](C)[C@@H]1NC(=O)[C@@H]2CSSC[C@@H]3NC(=O)[C@H](C(C)C)NC(=O)[C@H](CC(C)C)NC(=O)[C@H](CC(N)=O)NC(=O)[C@@H]4CCCN4C(=O)[C@H](CCCNC(=N)N)NC(=O)[C@H](CSSC[C@H](NC(=O)[C@@H](N)CC(=O)O)C(=O)N[C@@H](CC(C)C)C(=O)NCC(=O)N[C@@H](Cc4ccccc4)C(=O)N[C@@H](CC(C)C)C(=O)N[C@@H](CCCNC(=N)N)C(=O)N[C@@H](CCCCN)C(=O)N2)NC(=O)[C@H](CSSC[C@@H](C(=O)N[C@@H](CCCCN)C(=O)N[C@@H](Cc2ccc(O)cc2)C(=O)N[C@H](C(=O)N[C@@H](Cc2ccccc2)C(N)=O)C(C)C)NC(=O)[C@H](Cc2c[nH]c4ccccc24)NC(=O)[C@H](CCCCN)NC(=O)[C@H](Cc2cnc[nH]2)NC(=O)[C@H]([C@@H](C)O)NC(=O)[C@H](CCCNC(=N)N)NC(=O)[C@H](CO)NC3=O)NC(=O)[C@H](CCCCN)NC(=O)[C@H](CC(=O)O)NC(=O)[C@H](CC(N)=O)NC(=O)[C@H](CC(=O)O)NC(=O)[C@@H]2CCCN2C1=O` (H-DCLGFLRKCIPDNDKCCRPNLVCSRTHKWCKYVF-NH2; disulfide 2-17, 9-23, 16-30): the IC50 in test [1] is 0.024 µM; in test [2] it was above 10 µM.

As for `CC[C@H](C)[C@@H]1NC(=O)[C@@H]2CSSC[C@@H]3NC(=O)[C@H](C(C)C)NC(=O)[C@H](CC(C)C)NC(=O)[C@H](CC(N)=O)NC(=O)[C@@H]4CCCN4C(=O)[C@H](CCCNC(=N)N)NC(=O)[C@H](CSSC[C@H](NC(=O)[C@@H](N)CC(=O)O)C(=O)N[C@@H](CC(C)C)C(=O)NCC(=O)N[C@@H](Cc4ccccc4)C(=O)N[C@@H](CCSC)C(=O)N[C@@H](CCCNC(=N)N)C(=O)N[C@@H](CCCCN)C(=O)N2)NC(=O)[C@H](CSSC[C@@H](C(=O)N[C@@H](CCCCN)C(=O)N[C@@H](Cc2ccc(O)cc2)C(=O)N[C@@H](C)C(=O)N[C@@H](Cc2ccccc2)C(N)=O)NC(=O)[C@H](Cc2c[nH]c4ccccc24)NC(=O)[C@H](CCCCN)NC(=O)[C@H](Cc2cnc[nH]2)NC(=O)[C@H]([C@@H](C)O)NC(=O)[C@H](CCCNC(=N)N)NC(=O)[C@H](CO)NC3=O)NC(=O)[C@H](CCCCN)NC(=O)[C@H](CC(=O)O)NC(=O)[C@H](CC(N)=O)NC(=O)[C@H](CC(=O)O)NC(=O)[C@@H]2CCCN2C1=O` (H-DCLGFMRKCIPDNDKCCRPNLVCSRTHKWCKYAF-NH2; disulfide 2-17, 9-23, 16-30), the IC50 is 0.17 µM in test [1] and above 5 µM in test [2].

Regarding `CC[C@H](C)[C@@H]1NC(=O)[C@@H]2CSSC[C@@H]3NC(=O)[C@H](C(C)C)NC(=O)[C@H](CC(C)C)NC(=O)[C@H](CC(N)=O)NC(=O)[C@@H]4CCCN4C(=O)[C@H](CCCNC(=N)N)NC(=O)[C@H](CSSC[C@H](NC(=O)[C@@H](N)CC(=O)O)C(=O)N[C@@H](CC(C)C)C(=O)NCC(=O)N[C@@H](CC4CCCCC4)C(=O)N[C@@H](CCSC)C(=O)N[C@@H](CCCNC(=N)N)C(=O)N[C@@H](CCCCN)C(=O)N2)NC(=O)[C@H](CSSC[C@@H](C(=O)N[C@@H](CCCCN)C(=O)N[C@@H](Cc2ccc(O)cc2)C(=O)N[C@H](C(=O)N[C@@H](Cc2ccccc2)C(N)=O)C(C)C)NC(=O)[C@H](Cc2c[nH]c4ccccc24)NC(=O)[C@H](CCCCN)NC(=O)[C@H](Cc2cnc[nH]2)NC(=O)[C@H]([C@@H](C)O)NC(=O)[C@H](CCCNC(=N)N)NC(=O)[C@H](CO)NC3=O)NC(=O)[C@H](CCCCN)NC(=O)[C@H](CC(=O)O)NC(=O)[C@H](CC(N)=O)NC(=O)[C@H](CC(=O)O)NC(=O)[C@@H]2CCCN2C1=O`, the IC50 in test [1] was 0.004 µM; in test [2], 3.5 µM.

As for `CC[C@H](C)[C@@H]1NC(=O)[C@@H]2CSSC[C@@H]3NC(=O)[C@H](C(C)C)NC(=O)[C@H](CC(C)C)NC(=O)[C@H](CC(N)=O)NC(=O)[C@@H]4CCCN4C(=O)[C@H](CCCNC(=N)N)NC(=O)[C@H](CSSC[C@H](NC(=O)[C@@H](N)CC(=O)O)C(=O)N[C@@H](CC(C)C)C(=O)NCC(=O)N[C@@H](Cc4ccccc4)C(=O)N[C@@H](CCSC)C(=O)N[C@@H](CCCNC(=N)N)C(=O)N[C@@H](CCCCN)C(=O)N2)NC(=O)[C@H](CSSC[C@@H](C(=O)N[C@@H](CCCCN)C(=O)N[C@@H](Cc2ccc(O)cc2)C(=O)N[C@H](C(=O)N[C@@H](Cc2ccccc2)C(N)=O)C(C)C)NC(=O)[C@H](Cc2c[nH]c4ccccc24)NC(=O)[C@H](CCC(=O)O)NC(=O)[C@H](Cc2cnc[nH]2)NC(=O)[C@H]([C@@H](C)O)NC(=O)[C@H](CCCNC(=N)N)NC(=O)[C@H](CO)NC3=O)NC(=O)[C@H](CCCCN)NC(=O)[C@H](CC(=O)O)NC(=O)[C@H](CC(N)=O)NC(=O)[C@H](CC(=O)O)NC(=O)[C@@H]2CCCN2C1=O` (H-DCLGFMRKCIPDNDKCCRPNLVCSRTHEWCKYVF-NH2; disulfide 2-17, 9-23, 16-30), the IC50 in test [1] is 0.029 µM; in test [2], above 10 µM.

As to `CC[C@H](C)[C@@H]1NC(=O)[C@@H]2CSSC[C@@H]3NC(=O)[C@H](C(C)C)NC(=O)[C@H](CC(C)C)NC(=O)[C@H](CC(N)=O)NC(=O)[C@@H]4CCCN4C(=O)[C@H](CCCNC(=N)N)NC(=O)[C@H](CSSC[C@H](NC(=O)[C@@H](N)CC(=O)O)C(=O)N[C@@H](CC(C)C)C(=O)NCC(=O)N[C@@H](Cc4ccccc4)C(=O)N[C@@H](Cc4c[nH]c5ccccc45)C(=O)N[C@@H](CCCNC(=N)N)C(=O)N[C@@H](CCCCN)C(=O)N2)NC(=O)[C@H](CSSC[C@@H](C(=O)N[C@@H](CCCCN)C(=O)N[C@@H](Cc2ccc(O)cc2)C(=O)N[C@H](C(=O)N[C@@H](Cc2ccccc2)C(N)=O)C(C)C)NC(=O)[C@H](Cc2c[nH]c4ccccc24)NC(=O)[C@H](CCCCN)NC(=O)[C@H](Cc2cnc[nH]2)NC(=O)[C@H]([C@@H](C)O)NC(=O)[C@H](CCCNC(=N)N)NC(=O)[C@H](CO)NC3=O)NC(=O)[C@H](CCCCN)NC(=O)[C@H](CC(=O)O)NC(=O)[C@H](CC(N)=O)NC(=O)[C@H](CC(=O)O)NC(=O)[C@@H]2CCCN2C1=O` (H-DCLGFWRKCIPDNDKCCRPNLVCSRTHKWCKYVF-NH2; disulfide 2-17, 9-23, 16-30), the IC50 was determined as 0.023 µM in test [1] and 3.4 µM in test [2].

With `CC[C@H](C)[C@@H]1NC(=O)[C@@H]2CSSC[C@@H]3NC(=O)[C@H](C(C)C)NC(=O)[C@H](CC(C)C)NC(=O)[C@H](CC(N)=O)NC(=O)[C@@H]4CCCN4C(=O)[C@H](CCCNC(=N)N)NC(=O)[C@H](CSSC[C@H](NC(=O)[C@@H](N)CC(=O)O)C(=O)N[C@@H](CC(C)C)C(=O)NCC(=O)N[C@@H](Cc4ccccc4)C(=O)N[C@@H](CCSC)C(=O)N[C@@H](CCCNC(=N)N)C(=O)N[C@@H](CCCCN)C(=O)N2)NC(=O)[C@H](CSSC[C@@H](C(=O)N[C@@H](CCCCN)C(=O)N[C@@H](Cc2ccc(O)cc2)C(=O)N[C@H](C(=O)N[C@@H](Cc2ccccc2)C(N)=O)C(C)C)NC(=O)[C@H](Cc2c[nH]c4ccccc24)NC(=O)[C@H](CCCCN)NC(=O)[C@H](Cc2cnc[nH]2)NC(=O)[C@H]([C@@H](C)O)NC(=O)[C@H](CCCNC(=N)N)NC(=O)[C@H](CO)NC3=O)NC(=O)[C@H](C)NC(=O)[C@H](CC(=O)O)NC(=O)[C@H](CC(N)=O)NC(=O)[C@H](CC(=O)O)NC(=O)[C@@H]2CCCN2C1=O` (H-DCLGFMRKCIPDNDACCRPNLVCSRTHKWCKYVF-NH2; disulfide 2-17, 9-23, 16-30), the IC50 in test [1] is 0.23 µM; in test [2] it was above 5 µM.

On to `CC[C@H](C)[C@@H]1NC(=O)[C@@H]2CSSC[C@@H]3NC(=O)[C@H](C(C)C)NC(=O)[C@H](CC(C)C)NC(=O)[C@H](CC(N)=O)NC(=O)[C@@H]4CCCN4C(=O)[C@H](CCCNC(=N)N)NC(=O)[C@H](CSSC[C@H](NC(=O)[C@@H](N)CC(=O)O)C(=O)N[C@@H](CC(C)C)C(=O)NCC(=O)N[C@@H](Cc4ccccc4)C(=O)N[C@@H](CCSC)C(=O)N[C@@H](CCCNC(=N)N)C(=O)N[C@@H](CCCCN)C(=O)N2)NC(=O)[C@H](CSSC[C@@H](C(=O)N[C@@H](CCCCN)C(=O)N[C@@H](Cc2ccc(O)cc2)C(=O)N[C@H](C(=O)N[C@@H](Cc2ccccc2)C(N)=O)C(C)C)NC(=O)[C@H](Cc2c[nH]c4ccccc24)NC(=O)[C@H](CCCCN)NC(=O)[C@H](Cc2cnc[nH]2)NC(=O)[C@H]([C@@H](C)O)NC(=O)[C@H](CCCNC(=N)N)NC(=O)[C@H](CO)NC3=O)NC(=O)[C@H](CCCCN)NC(=O)[C@H](CC(=O)O)NC(=O)[C@H](C)NC(=O)[C@H](CC(=O)O)NC(=O)[C@@H]2CCCN2C1=O` (H-DCLGFMRKCIPDADKCCRPNLVCSRTHKWCKYVF-NH2; disulfide 2-17, 9-23, 16-30), for which the values for the IC50 in test [1] and in test [2] were 0.19 µM and above 5 µM, respectively.
